Results as given in paper PMC9220351, “Evaluation of a Conformationally Constrained Indole Carboxamide as a Potential Efflux Pump Inhibitor in Pseudomonas aeruginosa” (Antibiotics, 2022).
Values after ≈ are worked out from the molar mass of the structure shown. Where two headings read alike, the source gives them in different places.

Assays:
[1] = tested on: P. aeruginosa mutants EPIR1S, EPIR9S, EPIR20L, EPIR43; assay: MIC of antimicrobials in TXA09155-resistant mutants; type: cell-based, Pseudomonas aeruginosa
Method: All resistant colonies were verified by determining the MIC to TXA09155. […] This two-component system regulates the expression of more than 100 genes in P. aeruginosa, including genes that code for efflux components (mexX), and plays a role in the resistance to cationic antimicrobial peptides and aminoglycoside antibiotics.
(§1) MIC assays were performed as described previously.

[2] = tested on: P. aeruginosa ATCC 27853; assay: MIC / antibiotic potentiation assay, wild-type strain; conditions: for Antibiotic MIC in Presence of TXA09155 at a Concentration of 3.13: TXA09155 3.13 μg/mL; for Antibiotic MIC in Presence of TXA09155 at a Concentration of 25: TXA09155 25 μg/mL; for Emax: ratio between MIC without EPI and MIC in the presence of a maximal potentiating concentration of EPI (TXA09155); for antibiotic potentiated by TXA09155 up to x-fold: TXA09155 25 to 3.13 µg/mL
[3] = tested on: P. aeruginosa K767 (WT); assay: MIC assay, strain K767; type: cell-based, Pseudomonas aeruginosa; conditions: antibiotic alone; for MIC: Pseudomonas aeruginosa, read-out: MICs K767 (WT)
Source text: (§2) P. aeruginosa ATCC 27853 was obtained from the American Type Culture Collection (ATCC; Manassas, VA, USA). P. aeruginosa multidrug-resistant isolates were obtained from the CDC and FDA Antibiotic Resistance Isolate Bank (Atlanta, GA, USA). P. aeruginosa DA7232 (gyrA-T83I, parC-S80L) was a kind gift from Prof. Dan I. Andersson, Uppsala University, Uppsala, Sweden, and has been characterized elsewhere. P. aeruginosa strains K767 (WT), K1455 (mexAB-oprM overexpressed), K2415 (mexXY-oprM overexpressed), and K3698 (oprM∆) were obtained from Prof. Keith Poole, Queen’s University, Kingston, Ontario, Canada and have been characterized elsewhere. Bacterial cells were grown in cation-adjusted Mueller Hinton (CAMH) media, brain heart infusion broth (BHI), or tryptic soy agar (TSA) plates were all obtained from Becton, Dickinson, and Company (BD; Franklin Lakes, NJ, USA). Aztreonam, ceftazidime, moxifloxacin, levofloxacin, minocycline, tigecycline, chloramphenicol, nitrocefin, and imipenem were purchased from TOKU-E (Bellingham, WA, USA). Azithromycin was purchased from Tokyo Chemical Industry (Portland, OR, USA). Cotrimoxazole was purchased from Toronto Research Chemicals (Toronto, ON, Canada). Doxycycline and polymyxin B were purchased from Sigma-Aldrich (St. Louis, MO, USA). Ethidium bromide (EtBr) and glucose were purchased from VWR (Radnor, PA, USA). MC-04,124 and TXA01182 were synthesized at TAXIS Pharmaceuticals. Carbonyl cyanide 3-chlorophenylhydrazone (CCCP) was purchased from Enzo Life Sciences (Farmingdale, NY, USA). DiOC2 (3) and propidium iodide were obtained from Thermo Fisher Scientific (Waltham, MA, USA).
as §1

[4] = tested on: P. aeruginosa K3698 (∆oprM); assay: MIC / potentiation assay, strain K3698; type: cell-based, Pseudomonas aeruginosa; conditions: for MIC: Pseudomonas aeruginosa, read-out: MICs K3698 (∆oprM)
Source text: as §2, with “Aztreonam, ceftazidime, moxifloxacin, levofloxacin, minocycline, tigecycline, chloramphenicol, nitrocefin, and imipenem were purchased from TOKU-E (Bellingham, WA, USA).” left out, “Cotrimoxazole was purchased from Toronto Research Chemicals (Toronto, ON, Canada). Doxycycline and polymyxin B were purchased from Sigma-Aldrich (St. Louis, MO, USA).” left out
as §1

[5] = tested on: P. aeruginosa K2415 (mexXY-oprM overexpressed); assay: MIC / potentiation assay, strain K2415; type: cell-based, Pseudomonas aeruginosa; conditions: for MIC: Pseudomonas aeruginosa, read-out: MICs K2415 (↑mexXY-oprM)
Source text: as §2, §1

[6] = tested on: P. aeruginosa K1455 (mexAB-oprM overexpressed); assay: microbe, parasite or virus in culture; type: cell-based, Pseudomonas aeruginosa; conditions: for MIC: Pseudomonas aeruginosa, read-out: MICs K1455 (↑mexAB-oprM); for MIC Ratios K1455 (↑mexAB-oprM)/K3698 (∆oprM): effect of pump deletion
Source text: as §2, §1

[7] = Pseudomonas aeruginosa, strain EPIR1S (phoQ-L175R)
[8] = Pseudomonas aeruginosa, strain EPIR20L (phoQ-H248D)
[9] = Pseudomonas aeruginosa, ATCC27853, read-out: Antibiotic MIC in Presence of TXA09155 at a Concentration of 0
[10] = Pseudomonas aeruginosa, ATCC27853, read-out: MICs, Lack of EPI
[11] = Pseudomonas aeruginosa, strain EPIR9S (phoQ-L175R)

Compound | MIC [1, 7] [µg/mL] | MIC [1, 8] [µg/mL] | MIC [2, 9] [µg/mL] | Antibiotic MIC in Presence of TXA09155 at a Concentration of 3.13 [2] [µg/mL] | Antibiotic MIC in Presence of TXA09155 at a Concentration of 25 [2] [µg/mL] | Emax [2] | MIC [3] [µg/mL] | Antibiotic MIC in Presence of TXA09155 at a Concentration of 12.5 [2] [µg/mL] | MIC [5] [µg/mL] | MIC [6] [µg/mL] | also measured
NCC[C@H](O)C(=O)N[C@@H]1C[C@H](N)[C@@H](O[C@H]2O[C@H](CN)[C@@H](O)[C@H](O)[C@H]2O)[C@H](O)[C@H]1O[C@H]1O[C@H](CO)[C@@H](O)[C@H](N)[C@H]1O [AMK, amikacin] | 8 | 8 | – | – | – | – | – | – | – | – | –
CC[C@H]1OC(=O)[C@H](C)[C@@H](O[C@H]2C[C@@](C)(OC)[C@@H](O)[C@H](C)O2)[C@H](C)[C@@H](O[C@@H]2O[C@H](C)C[C@H](N(C)C)[C@H]2O)[C@](C)(O)C[C@@H](C)CN(C)[C@H](C)[C@@H](O)[C@]1(C)O [AZM, azithromycin] | 64 | 64 | – | – | – | – | – | – | – | – | MIC ([2]; ATCC 27853, parent strain): 64 µg/mL
C[C@H]1[C@H](NC(=O)/C(=N\OC(C)(C)C(=O)O)c2csc(N)n2)C(=O)N1S(=O)(=O)O [Aztreonam] | – | – | 8 | 4 | 0.25 | 32 | – | – | – | – | –
CC(C)(O/N=C(\C(=O)N[C@@H]1C(=O)N2C(C(=O)[O-])=C(C[n+]3ccccc3)CS[C@H]12)c1csc(N)n1)C(=O)O [CAZ, ceftazidime] | 2 | 2 | – | – | – | – | – | – | – | – | MIC ([2]; ATCC 27853, parent strain): 2 µg/mL
CO/N=C(\C(=O)N[C@@H]1C(=O)N2C(C(=O)[O-])=C(C[n+]3cccc4c3CCC4)CS[C@H]12)c1csc(N)n1 [Cefpirome] | – | – | 8 | 4 | 0.5 | 16 | 2 (≈ 3.89 µM) | 0.5 | 8 | 8 (≈ 15.5 µM) | antibiotic potentiated by TXA09155 up to x-fold [2]: up to 16 fold; FICindex ([2]; sum of the FICindex of antibiotic and TXA09155, <0.5 synergistic): 0.25; MIC [4]: 0.5 µg/mL; MIC Ratios K3698 (∆oprM) ± TXA09155 [4]: 2; MIC Ratios K2415 (↑mexXY-oprM) ± TXA09155 [5]: 8; MIC Ratios K1455 (↑mexAB-oprM) ± TXA09155 [6]: 8; MIC Ratios K1455 (↑mexAB-oprM)/K3698 (∆oprM) ([6]; antibiotic alone): 4
O=C(N[C@H](CO)[C@H](O)c1ccc([N+](=O)[O-])cc1)C(Cl)Cl [Chloramphenicol] | – | – | > 256 | >256 | 2 | >128 | 128 (≈ 396 µM) | 4 | 128 | > 256 | MIC [2, 10]: > 256 µg/mL; MIC [4]: 8 µg/mL
C[C@H]1c2cccc(O)c2C(=O)C2=C(O)[C@]3(O)C(=O)C(C(N)=O)=C(O)[C@@H](N(C)C)[C@@H]3[C@@H](O)[C@@H]21 [Doxycycline] | 16 | 16 | 32 | 16 | – | – | 32 (≈ 72 µM) | – | 32 | ≥ 256 | MIC [1, 11]: 16 µg/mL; MIC [2, 10]: 32 µg/mL
C[C@@H](O)[C@H]1C(=O)N2C(C(=O)O)=C(SCCN=CN)C[C@H]12 [Imipenem] | – | – | 2 | 2 | 2 | 1 | 2 (≈ 6.68 µM) | 2 | 1 | 1 (≈ 3.34 µM) | antibiotic potentiated by TXA09155 up to x-fold [2]: not potentiated; MIC [4]: 2 µg/mL; MIC Ratios K3698 (∆oprM) ± TXA09155 [4]: 1; MIC Ratios K2415 (↑mexXY-oprM) ± TXA09155 [5]: 1; MIC Ratios K1455 (↑mexAB-oprM) ± TXA09155 [6]: 1; MIC Ratios K1455 (↑mexAB-oprM)/K3698 (∆oprM) ([6]; antibiotic alone): 1
C[C@@H](O)[C@H]1C(=O)N2C(C(=O)O)=C(S[C@@H]3CN[C@H](C(=O)N(C)C)C3)[C@H](C)[C@H]12 [MEM, meropenem] | 2 | 2 | – | – | – | – | – | – | – | – | MIC [1, 11]: 1 µg/mL
CN(C)c1ccc(O)c2c1C[C@H]1C[C@H]3[C@H](N(C)C)C(O)=C(C(N)=O)C(=O)[C@@]3(O)C(O)=C1C2=O [Minocycline] | – | – | 32 | 16 | 0.125 | 256 | 64 (≈ 140 µM) | 0.25 | 32 | > 256 | MIC [2, 10]: 32 µg/mL; MIC [4]: 1 µg/mL
COc1c(N2C[C@@H]3CCCN[C@@H]3C2)c(F)cc2c(=O)c(C(=O)O)cn(C3CC3)c12 [Moxifloxacin] | – | – | 2 | 2 | 0.016 | – | – | 0.031 | – | – | MIC [2, 10]: 2 µg/mL
CN(C)c1cc(NC(=O)CNC(C)(C)C)c(O)c2c1C[C@H]1C[C@H]3[C@H](N(C)C)C(O)=C(C(N)=O)C(=O)[C@@]3(O)C(O)=C1C2=O [TGC, tigecycline] | 8 | 8 | – | – | – | – | – | – | – | – | MIC ([2]; ATCC 27853, parent strain): 8 µg/mL
Cotrimoxazole | – | – | – | 256 | 2 | 128 | – | 4 | – | – | MICs K767 (WT) [3]: 64 µg/mL; Antibiotic MIC in Presence of TXA09155 at a Concentration of 0 ([2]; TXA09155 0 μg/mL): 256 µg/mL; MICs K3698 (∆oprM) ([4]; antibiotic alone): 4 µg/mL; MICs K2415 (↑mexXY-oprM) ([5]; antibiotic alone): 64 µg/mL; MICs K1455 (↑mexAB-oprM) ([6]; antibiotic alone): > 256 µg/mL
polymyxin B [PMB] | – | – | – | – | – | – | – | – | – | – | MIC ([1]; strain EPIR1S (phoQ-L175R)): 4 µg/mL; MIC ([1]; strain EPIR9S (phoQ-L175R)): 2 µg/mL; MIC ([1]; strain EPIR20L (phoQ-H248D)): 4 µg/mL; MIC ([1]; strain EPIR43 (ompH-Q127X)): 4 µg/mL; MIC ([2]; ATCC 27853, parent strain): 2 µg/mL
